Holding throughout (assay type): in vivo
Experiment [1] has as its system fall armyworm larvae (Spodoptera frugiperda). Nature of the experiment: Spodoptera frugiperda spray test (maize leaf sections). To be noted: 168 h. Put shortly:
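Maize leaf sections sprayed with compound in acetone/dimethylformamide, diluted in water with 1000 ppm alkylarylpolyglycol ether emulsifier. Dried sections infested with fall armyworm larvae. Mortality (%) scored after 7 days; 100% = all caterpillars killed.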

The subject of experiment [2] is adult mosquitoes Aedes aegypti strain MONHEIM. Nature of the experiment: Aedes aegypti test (AEDSAE surface treatment & contact assay). To be noted: surface concentration 20 mg/m^2, 30 min exposure, 24 hours after contact, read-out: efficacy (mortality). Put shortly:
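Test compound in acetone (2 mg/ml) with 2000 ppm rapeseed oil methyl ester was dried onto a glazed tile. Adult Aedes aegypti MONHEIM were exposed to the treated surface for 30 minutes. Percent mortality was scored 24 hours after contact.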

Experiment [3] deals with Rhipicephalus microplus larvae (strain Parkhurst, resistant against synthetic pyrethroids). Nature of the experiment: Rhipicephalus (Boophilus) microplus in-vitro contact test, larval cattle tick. To be noted: 5 μg/cm^2 (=500 g/ha), after 48 hours, read-out: efficacy (larvae dead or moribund). Put shortly: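 Larvae exposed by contact to a dried acetone film on glass; a 900 ppm solution yields 5 μg/cm^2. Scoring after 48 h at 27° C. counts dead plus moribund larvae as efficacy.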

For experiment [4], the system named is green peach aphid (Myzus persicae). In words: Myzus persicae oral test. The conditions noted are these: 120 h. Put shortly:
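Compound was dissolved in acetone, diluted with water and mixed into IPL41 insect medium with sugar under a parafilm seal. A mixed aphid population fed through the parafilm, and mortality (%) was scored after 5 days.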

For experiment [5], the system named is adult unfed cat fleas (Ctenocephalides felis). Nature of the experiment: Ctenocephalides felis oral test. The conditions noted are these: 48 h. Put shortly: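 About 20 adult unfed fleas fed through parafilm on cattle blood containing compound (DMSO stock diluted in blood), blood held at 37 °C and fleas at room temperature. Mortality (%) scored after 2 days.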

In experiment [6] the test system is adult brown dog ticks (Rhipicephalus sanguineus). Nature of the experiment: Rhipicephalus sanguineus in-vitro contact test with adult brown dog ticks. The conditions noted are these: 5 μg/cm^2 (=500 g/ha), after 48 hours, read-out: efficacy (ticks dead or moribund). An outline of the steps:
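Acetone solution (900 ppm giving 5 μg/cm²) coated on inner walls of glass tubes; after drying, 5-10 adult ticks added and held at room temperature 48 h. Ticks then placed on 45-50 °C plate ≤5 min; those unable to climb away scored dead/moribund, efficacy as % affected.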

Experiment [7] relates to adult engorged female ticks (Rhipicephalus microplus). Nature of the experiment: Rhipicephalus (Boophilus) microplus injection test. The conditions noted are these: 168 h, 4 μg/animal, egg deposition after 7 days, read-out: efficacy (infertile eggs). Put shortly:
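Five adult engorged female ticks each injected into the abdomen with 1 μL of compound in DMSO, then kept in a climate chamber. Fertile egg deposition assessed after 7 days, with unclear eggs held until hatching around 42 days; efficacy 100% means all eggs infertile, 0% all fertile.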

Experiment [8] relates to larvae of the banded cucumber beetle (Diabrotica balteata). Nature of the experiment: Diabrotica balteata spray test. The conditions noted are these: 168 h, 100 g/ha (=32 μg/well), wheat seeds, after 7 days, read-out: efficacy (seedling growth). Put shortly: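 Wheat seeds germinated 1 day on agar were sprayed with compound in acetone/dimethylformamide with alkylarylpolyglycol ether emulsifier, diluted in emulsifier-containing water. Each unit then received 10-20 larvae, and % efficacy was scored after 7 days.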

For experiment [9], the system named is adult flies Musca domestica strain WHO-N. Nature of the experiment: Musca domestica test (MUSCDO surface treatment & contact assay). The conditions noted are these: 24 hours after contact, read-out: efficacy (mortality). An outline of the steps:
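Compound in acetone at 2 mg/ml with 2000 ppm RME pipetted onto glazed tile; after acetone evaporates, adult WHO-N flies exposed on dried surface for 30 min. Percent mortality scored 24 h after contact.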

Experiment [10] concerns cattle ticks (Rhipicephalus microplus) strain Parkhurst, SP-resistant. Nature of the experiment: Rhipicephalus (Boophilus) microplus dip test. The conditions noted are these: 100 ppm, egg deposition after 7 days. On the procedure:
Rhipicephalus (Boophilus) Microplus—Dip Test
Test animal: cattle ticks (Rhipicephalus microplus) strain Parkhurst, SP-resistant
Solvent: dimethyl sulfoxide
To produce a suitable preparation of active compound, 10 mg of active compound are dissolved in 0.5 mL solvent, and the concentrate is diluted with water to the desired concentration.
This compound solution is pipetted into tubes. 8-10 engorged, adult, female cattle ticks (Rhipicephalus microplus) are placed in perforated tubes. These tubes are immersed in the aqueous compound solution until the ticks are completely moistened. After the liquid has drained off, the ticks are transferred to a filter paper in a plastic tray and stored in a climate chamber.
After 7 days egg deposition of fertile eggs is monitored. Eggs where fertility is not visible are stored in a climate chamber till hatching after about 42 days. An efficacy of 100% means all eggs are infertile; 0% means all eggs are fertile.

Experiment [11] deals with larvae of the southern green stink bug (Nezara viridula). Nature of the experiment: Nezara viridula spray test. To be noted: in Hordeum vulgare, 96 h. Put shortly: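 Barley plants sprayed with compound in acetone/dimethylformamide, diluted in water with 1000 ppm alkylarylpolyglycol ether emulsifier, then infested with Nezara viridula larvae. Percent mortality read after 4 days (100% = all killed, 0% = none).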

In experiment [12] the test system is fall armyworm larvae (Spodoptera frugiperda). In words: Spodoptera frugiperda spray test (SPODFR, maize leaf sections), comparison. The conditions noted are these: 168 h, 7 dat, read-out: % Efficacy. On the procedure: Spodoptera fruaiperda—Spray Test (SPODFR) • Solvent: 78.0 parts by weight acetone • 1.5 parts by weight dimethylformamide • Emulsifier: alkylarylpolyglycol ether
To produce a suitable preparation of active compound, 1 part by weight of active compound is mixed with the stated amount of solvents and is diluted with water, containing an emulsifier concentration of 1000 ppm, to the desired concentration. Further test concentrations are prepared by dilution with emulsifier containing water.
Maize (Zea mays) leaf sections are sprayed with a preparation of the active ingredient of the desired concentration. Once dry, the leaf sections are infested with fall armyworm larvae (Spodoptera frugiperda).
After the specified period of time, mortality in % is determined in comparison to the untreated control plant. 100% means all caterpillars have been killed and 0% means none of the caterpillars have been killed.

In experiment [13] the test system is larvae of the southern green stink bug (Nezara viridula). Nature of the experiment: Nezara viridula spray test (NEZAVI), comparison. The conditions noted are these: 96 h, 500 g ai/ha, 4 dat, read-out: % Efficacy. On the procedure: Nezara viridula—Spray Test (NEZAVI) • Solvent: 78.0 parts by weight of acetone • 1.5 parts by weight of dimethylformamide • Emulsifier: alkylarylpolyglycol ether
To produce a suitable preparation of active compound, 1 part by weight of active compound is mixed with the stated amount of solvent, and the concentrate is diluted with water, containing an emulsifier concentration of 1000 ppm, to the desired concentration. Further test concentrations are prepared by dilution with emulsifier containing water.
Barley plants (Hordeum vulgare) are sprayed with a test solution containing the desired concentration of the active ingredient and are infested with larvae of the southern green stink bug (Nezara viridula).
After the specified period of time, mortality in % is determined in comparison to the untreated control plant. 100% means all the stink bugs have been killed; 0% means none of the stink bugs have been killed.

Experiment [14] has as its system caterpillars of the fall army worm (Spodoptera frugiperda). Nature of the experiment: Spodoptera frugiperda spray test (SPODFR, cotton leaves), comparison. To be noted: 168 h, 7 dat, read-out: % Efficacy. As for the experimental part: Spodoptera fruaiperda—Spray Test (SPODFR) • Solvent: 14 parts by weight of dimethylformamide • Emulsifier: alkylaryl polyglycol ether
(§1) To produce a suitable preparation of active compound, 1 part by weight of active compound is mixed with the stated amount of solvent and is diluted with water, containing an emulsifier concentration of 1000 ppm, to the desired concentration. Further test concentrations are prepared by dilution with emulsifier containing water. Ammonium salt and/or penetration enhancer in a dosage of 1000 ppm are added to the desired concentration if necessary.
(§2) Cotton leaves (Gossypium hirsutum) are treated by being sprayed with the preparation of the active compound of the desired concentration and are infested with caterpillars of the fall army worm (Spodoptera frugiperda).
After the specified period of time mortality in % is determined. 100% means all the caterpillars have been killed and 0% means none of the caterpillars have been killed.

The test system of experiment [15] is larvae of the diamondback moth (Plutella xylostella). In words: Plutella xylostella spray test (PLUTMA), comparison. The conditions noted are these: 168 h, 7 dat, read-out: % Efficacy. As for the experimental part:
Plutella xylostella—spray test (PLUTMA) • Solvent: 14 parts by weight of dimethylformamide • Emulsifier: alkylaryl polyglycol ether
as §1
Cabbage leaves (Brassica oleracea) are treated by being sprayed with the preparation of the active compound of the desired concentration and are infested with larvae of the diamondback moth (Plutella xylostella).
After the specified period of time, mortality in % is determined. 100% means all the caterpillars have been killed and 0% means none of the caterpillars have been killed.

The subject of experiment [16] is caterpillars of the fall army worm (Spodoptera frugiperda). Nature of the experiment: Spodoptera frugiperda spray test (cotton leaves). To be noted: 168 h, after 7 days. As for the experimental part:
Spodoptera frugiperda—spray test • Solvent: 14 parts by weight of dimethylformamide • Emulsifier: alkylaryl polyglycol ether
as §1, §2
After 7 days mortality in % is determined. 100% means all the caterpillars have been killed and 0% means none of the caterpillars have been killed.

For experiment [17], the system named is adult cat fleas (Ctenocephalides felis). In words: Ctenocephalides felis in-vitro contact test, adult cat flea. The conditions noted are these: 5 μg/cm^2 (=500 g/ha), after 48 hours. An outline of the steps: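 Acetone solutions of compound were coated onto inner walls of glass tubes (900 ppm giving 5 μg/cm^2) and dried; 5-10 adult C. felis were then held 48 h at room temperature. Efficacy = % fleas dead or moribund, judged by inability to escape a 45-50° C heating plate within 5 min.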

In [1], `Cc1nc([C@H](C)NC(=O)c2cc(Br)cc(C(F)(F)F)c2)n(-c2ncc(C#N)s2)n1` [I-14] registered a mortality at 100 g/ha of 100%. In addition, the mortality at 20 mg/m2 in experiment [2] lay in the range of 80 to 100%; in [9] (surface concentration 20 mg/m^2, 30 min exposure), 80 to 100%. Further, the pest or weed control at 5 µg/cm2 in [3] worked out at 100%. The same compound registered a mortality at 4 ppm in experiment [4] of 100%. Further, in [5], the mortality at 100 ppm was 100%. Further, the pest or weed control at 5 µg/cm2, 500 g/ha in experiment [6] worked out at 100%. For the same compound, in experiment [7], the pest or weed control at 0.004 mg was determined as 100%. Moreover, the pest or weed control at 32 µg/disc, 100 g/ha in experiment [8] came out at 100%. Besides, the mortality at 4 mg/m2 in experiment [9] (surface concentration 4 mg/m^2, 30 min exposure) was in the range of 90 to 100%. Further, in experiment [10], the “efficacy (infertile eggs)” value was 100%.
In the case of `C[C@H](NC(=O)c1cc(Cl)cc(S(=O)(=O)C(F)(F)F)c1)c1ncnn1-c1ncc(C#N)s1` [I-60], the mortality at 100 g/ha in [1] worked out at 100%. The mortality at 500 g/ha in experiment [11] stood at 100%. Moreover, in experiment [12] (20 g ai/ha), the larval mortality at 20 g/ha was determined as 100%. Moreover, in experiment [12] (100 g ai/ha), the larval mortality at 100 g/ha was found to be 100%. Further, in [8], the pest or weed control at 32 µg/disc, 100 g/ha came to 100%. Besides, the stink bug mortality at 500 g/ha in experiment [13] was found to be 100%.
For the compound `C[C@H](NC(=O)c1cc(Cl)cc(S(=O)(=O)C(F)(F)F)c1)c1ncnn1-c1nccs1` [I-077, reference compound], in experiment [12] (20 g ai/ha), the Emax at 20 g/ha came out at 33%. Further, the Emax at 100 g/ha in experiment [12] (100 g ai/ha) was 67%. For the same compound, the stink bug mortality at 500 g/ha in experiment [13] was 0%.
Regarding `C[C@H](NC(=O)c1cc(Cl)cc(C(F)(F)F)c1)c1ncnn1-c1ncc(C(F)(F)F)s1` [I-085], the Emax at 4 ppm in experiment [14] turned out to be 20%. For the same compound, in experiment [15], the mortality at 20 ppm was 40%.
In experiment [16], `C[C@H](NC(=O)c1cc(OC(F)(F)F)cc(S(C)(=O)=O)c1)c1ncnn1-c1ncc(C#N)s1` [I-93] had a mortality at 20 ppm of 100%.
As for `C[C@H](NC(=O)c1cc(OC(F)F)cc(OC(F)F)c1)c1ncnn1-c1ncc(C#N)s1` [I-94], the mortality at 20 ppm in experiment [16] came out at 100%. In experiment [3], the pest or weed control at 5 µg/cm2 was determined as 100%. In experiment [17], the “efficacy (fleas dead or moribund)” value was 100%. Also, in [6], the pest or weed control at 5 µg/cm2, 500 g/ha worked out at 100%.
The compound `C[C@H](NC(=O)c1cc(Cl)cc(OC(F)(F)F)c1)c1ncnn1-c1ncc(C#N)s1` [I-96] registered a mortality at 20 ppm in experiment [16] of 100%.
In [16], `C[C@H](NC(=O)c1cc(C(F)F)cc(C(F)F)c1)c1ncnn1-c1ncc(C#N)s1` [I-97] returned a mortality at 20 ppm of 100%. For the same compound, the pest or weed control at 5 µg/cm2 in experiment [3] came to 100%. Moreover, the “efficacy (fleas dead or moribund)” value in experiment [17] turned out to be 100%. Besides, the pest or weed control at 5 µg/cm2, 500 g/ha in experiment [6] was 100%.
`C[C@H](NC(=O)c1cc(OC(F)(F)F)cc(C(F)F)c1)c1ncnn1-c1ncc(C#N)s1` [I-98]: in experiment [16], the mortality at 20 ppm amounted to 100%. Further, the pest or weed control at 5 µg/cm2 in [3] was 100%. The “efficacy (fleas dead or moribund)” value in experiment [17] is reported as 100%. In addition, in [6], the pest or weed control at 5 µg/cm2, 500 g/ha amounted to 100%.
In the case of `CNC(=O)c1cnc(-n2ncnc2[C@H](C)NC(=O)c2cc(Cl)cc(S(=O)(=O)C(F)(F)F)c2)s1` [I-110], the mortality at 100 g/ha in [1] was 100%. In [11], this compound had a mortality at 100 g/ha of 90% and a mortality at 500 g/ha of 100%. Further, the Emax at 20 g/ha in [12] (20 g ai/ha) came out at 67%. Also, in experiment [12] (100 g ai/ha), the larval mortality at 100 g/ha turned out to be 100%. In experiment [8], the pest or weed control at 32 µg/disc, 100 g/ha was found to be 100%. Also, in [13], the stink bug mortality at 500 g/ha came to 100%.
